Experiment [1] has as its target Prothrombin (Homo sapiens, UniProt P00734). The experiment can be described thus: Inhibition of Coagulation factor IIa.
Experiment [2] deals with Coagulation factor X (Homo sapiens, UniProt P00742). The experiment can be described thus: Inhibition of Coagulation factor Xa.
Experiment [3] has as its target Serine protease 1 (Homo sapiens, UniProt P07477). The experiment can be described thus: In vitro inhibitory potency against Trypsin.
Experiment [4] is filed under the species Homo sapiens. In words: Concentration at which compound inhibited coagulation of human plasma in vitro, doubling activated partial thromboplastin time (APTT). It counts as functional, cell-free.
The species named for experiment [5] is Rattus norvegicus. The experiment can be described thus: Concentration at which compound inhibited coagulation of rat plasma in vitro, doubling activated partial thromboplastin time (APTT). The experiment is classed as functional, cell-free.
The nature of experiment [6]: Selectivity ratio as Ki of Activated protein C / Ki of factor Xa.
The nature of experiment [7]: Selectivity ratio as Ki of Serine proteases tissue plasminogen activator / Ki of factor Xa.
Experiment [8] can be described thus: Selectivity ratio as Ki of Trypsin / Ki of factor Xa.
For experiment [9], the target named is Thrombin and coagulation factor X (Homo sapiens) (UniProt P00734+P00742). In words: Selectivity ratio as Ki of factor IIA / Ki of factor Xa. The experiment is classed as protein assay.
Thrombin and coagulation factor X (Homo sapiens), sequence (P00742 whole entry, looked up, other chains not shown, the tested form may be a part): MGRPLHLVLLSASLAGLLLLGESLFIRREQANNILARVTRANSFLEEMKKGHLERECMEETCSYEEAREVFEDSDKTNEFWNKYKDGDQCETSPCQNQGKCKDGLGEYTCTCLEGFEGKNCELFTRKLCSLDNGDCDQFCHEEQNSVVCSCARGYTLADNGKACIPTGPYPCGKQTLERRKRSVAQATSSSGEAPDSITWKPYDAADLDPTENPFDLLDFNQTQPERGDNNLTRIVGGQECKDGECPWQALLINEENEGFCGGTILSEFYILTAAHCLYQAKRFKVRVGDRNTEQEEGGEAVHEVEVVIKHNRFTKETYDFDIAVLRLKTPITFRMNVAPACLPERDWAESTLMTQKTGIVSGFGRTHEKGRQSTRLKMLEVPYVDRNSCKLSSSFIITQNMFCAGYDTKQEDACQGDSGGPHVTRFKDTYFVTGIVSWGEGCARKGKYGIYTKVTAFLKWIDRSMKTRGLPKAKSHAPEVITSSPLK
Experiment [10] is filed under the species Rattus norvegicus. In words: Tested for maximal effective dose in ferrous-chloride induced arterial thrombosis by bolus infusion. The experiment is classed as functional. As to conditions: read-out: MED.
Experiment [11] deals with Rattus norvegicus. In words: Tested for maximal effective dose in ferrous-chloride induced arterial thrombosis by intravenous maintenance infusion. The experiment is classed as functional.

Coagulation factor X, sequence (P00742 41-179 limits assumed): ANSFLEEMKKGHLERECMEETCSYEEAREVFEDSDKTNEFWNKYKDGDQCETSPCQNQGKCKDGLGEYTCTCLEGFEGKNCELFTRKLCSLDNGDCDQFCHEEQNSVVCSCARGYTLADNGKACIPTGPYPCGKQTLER
Coagulation factor X, sequence (P00742 235-488 limits assumed): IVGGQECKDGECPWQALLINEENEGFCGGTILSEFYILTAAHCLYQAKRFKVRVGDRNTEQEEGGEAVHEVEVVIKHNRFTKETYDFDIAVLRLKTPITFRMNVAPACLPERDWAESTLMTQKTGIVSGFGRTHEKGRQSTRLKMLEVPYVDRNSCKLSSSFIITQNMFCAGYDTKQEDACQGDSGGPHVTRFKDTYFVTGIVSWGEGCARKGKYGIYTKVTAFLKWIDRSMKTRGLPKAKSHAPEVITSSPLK
Serine protease 1, sequence (P07477 whole entry): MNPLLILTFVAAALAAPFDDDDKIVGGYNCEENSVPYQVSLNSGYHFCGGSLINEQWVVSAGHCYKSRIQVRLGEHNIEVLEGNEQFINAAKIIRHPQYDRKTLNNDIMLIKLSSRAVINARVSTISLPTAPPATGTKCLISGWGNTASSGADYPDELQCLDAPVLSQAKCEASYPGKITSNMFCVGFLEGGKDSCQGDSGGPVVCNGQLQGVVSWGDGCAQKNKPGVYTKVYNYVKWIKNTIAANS

In the case of `COC(=O)[C@H](Cc1cccc(C(=N)N)c1)[C@@H](C)NC(=O)c1ccc(-c2c[nH]cn2)cc1`, the inhibitory constant (Ki) was > 4000 nM in [1], 3 nM in experiment [2] and 170 nM in experiment [3].
Take `COC(=O)[C@H](Cc1cccc(C(=N)N)c1)[C@@H](C)NC(=O)c1ccc(-c2cc[n+](C)cc2)cc1`: the inhibitory constant (Ki) was > 4000 nM in [1], 2.7 nM in experiment [2] and 168 nM in [3].
In the case of `COC(=O)[C@H](Cc1cccc(C(=N)N)c1)[C@@H](C)NC(=O)c1ccc(-n2ccnc2)cc1`, the inhibition constant (Ki) in experiment [1] is > 4000 nM; in [2], 6 nM; in experiment [3], > 2900 nM.
As to `COC(=O)[C@H](Cc1cccc(C(=N)N)c1)[C@@H](C)NC(=O)c1ccc(-c2ccc[n+](C)c2)cc1`, the Ki was > 4000 nM in experiment [1], 0.8 nM in [2] and 52 nM in experiment [3].
With `COC(=O)[C@H](Cc1cccc(C(=N)N)c1)[C@@H](C)NC(=O)c1ccc(-c2cccnc2)cc1`, the values for the Ki in experiment [1], in experiment [2] and in experiment [3] were 4000 nM, 8 nM and 368 nM, respectively.
With `COC(=O)[C@H](Cc1cccc(C(=N)N)c1)[C@@H](C)NC(=O)c1ccc(-c2ccc[n+]([O-])c2)cc1`, the Ki in experiment [1] is > 4000 nM; in experiment [2], 2 nM; in [3] it was 130 nM.
`COC(=O)[C@H](Cc1cccc(C(=N)N)c1)[C@@H](C)NC(=O)c1ccc(-c2ccccc2)cc1` gave a Ki in [1] of 3250 nM. Further, the Concentration in experiment [4] was found to be 3.9 µM; in experiment [5] it was 5.1 µM. Moreover, the Ratio in experiment [6] was > 1000; in experiment [7], > 1000; in [8] it was 13; in experiment [9], 610.
With `COC(=O)[C@H](Cc1cccc(C(=N)N)c1)[C@@H](C)NC(=O)c1ccc(-c2cccc[n+]2C)cc1`, the Ki was > 4000 nM in experiment [1], 1.2 nM in [2] and 36 nM in experiment [3].
Regarding `COC(=O)[C@H](Cc1cccc(C(=N)N)c1)[C@@H](C)NC(=O)c1ccc(-c2ncc[nH]2)cc1`, the inhibition constant Ki in [1] is > 4000 nM; in experiment [2], 46 nM; in experiment [3], 490 nM.
Take `COC(=O)[C@H](Cc1cccc(C(=N)N)c1)[C@@H](C)NC(=O)c1ccc(-c2ccncc2)cc1`: the inhibition constant (Ki) was > 4000 nM in experiment [1], 0.5 nM in experiment [2] and 76 nM in experiment [3].
For `COC(=O)[C@H](Cc1cccc(C(=N)N)c1)[C@@H](C)NC(=O)c1ccc(-c2cccc[n+]2[O-])cc1` the same measures were > 4000 nM, 0.58 nM and 36 nM.
On to `COC(=O)[C@H](Cc1cccc(C(=N)N)c1)[C@@H](C)NC(=O)c1ccc(-c2ccccn2)cc1`, for which the inhibition constant Ki in experiment [1] was 2800 nM; in experiment [2], 0.89 nM; in experiment [3] it was 51 nM.
Regarding `COC(=O)[C@H](Cc1cccc(C(=N)N)c1)[C@@H](C)NC(=O)c1ccc(-c2cc[n+]([O-])cc2)cc1` [OTAMIXABAN], the Ki in experiment [1] was > 4000 nM; in [3] it was 301 nM. Besides, the Concentration in [4] was 0.41 µM; in experiment [5], 0.8 µM. Besides, the minimal effective dose in [10] stood at 0.05 mg/kg. In experiment [11], this compound gave an MED of 5 µg/min/kg. In addition, the Ratio in experiment [6] was > 10000; in experiment [7], > 10000; in experiment [8] it was 750; in experiment [9] it was > 10000.

Values taken from ChEMBL document CHEMBL1135155, “Optimization of the beta-aminoester class of factor Xa inhibitors. Part 2: Identification of FXV673 as a potent and selective inhibitor with excellent In vivo anticoagulant activity” (Bioorg Med Chem Lett, 2002).
